The values below come from patent publication US20250340552A1, “COMPOUNDS, COMPOSITIONS AND METHODS OF TREATING DISORDERS” (HOTSPOT THERAPEUTICS, INC., priority 2022, published 2025).

The test has as its target T1, Cbl-B (Homo sapiens, UniProt Q13191).
T1 construct: MSD-Based Assay for Degradation of Cbl-B in THP-1 Cells; endogenous in cells; host or cells: THP-1 (title) / Jurkat (protocol text)
In words: MSD-based assay for degradation of Cbl-B in THP-1 cells. It counts as cell-based. The essentials: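 Reported Dmax bins are A >70%, B 50–70%, C 30–50% and D <30%, from an electrochemiluminescence (MSD) sandwich assay of Cbl-B in cell lysates. THP-1 cells were exposed to compounds for 24 hours before lysis.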

[1] abbreviates: Cbl-B degradation, Jurkat cells seeded (heading: THP-1 cells), 24 hours incubation, MSD readout.
[2] abbreviates: Cbl-B degradation, Jurkat cells seeded (heading: THP-1 cells), 24 hours incubation, MSD readout, read-out: Dmax.

Where two headings read alike, the source gives them in different places.

T1 sequence (Q13191 whole entry): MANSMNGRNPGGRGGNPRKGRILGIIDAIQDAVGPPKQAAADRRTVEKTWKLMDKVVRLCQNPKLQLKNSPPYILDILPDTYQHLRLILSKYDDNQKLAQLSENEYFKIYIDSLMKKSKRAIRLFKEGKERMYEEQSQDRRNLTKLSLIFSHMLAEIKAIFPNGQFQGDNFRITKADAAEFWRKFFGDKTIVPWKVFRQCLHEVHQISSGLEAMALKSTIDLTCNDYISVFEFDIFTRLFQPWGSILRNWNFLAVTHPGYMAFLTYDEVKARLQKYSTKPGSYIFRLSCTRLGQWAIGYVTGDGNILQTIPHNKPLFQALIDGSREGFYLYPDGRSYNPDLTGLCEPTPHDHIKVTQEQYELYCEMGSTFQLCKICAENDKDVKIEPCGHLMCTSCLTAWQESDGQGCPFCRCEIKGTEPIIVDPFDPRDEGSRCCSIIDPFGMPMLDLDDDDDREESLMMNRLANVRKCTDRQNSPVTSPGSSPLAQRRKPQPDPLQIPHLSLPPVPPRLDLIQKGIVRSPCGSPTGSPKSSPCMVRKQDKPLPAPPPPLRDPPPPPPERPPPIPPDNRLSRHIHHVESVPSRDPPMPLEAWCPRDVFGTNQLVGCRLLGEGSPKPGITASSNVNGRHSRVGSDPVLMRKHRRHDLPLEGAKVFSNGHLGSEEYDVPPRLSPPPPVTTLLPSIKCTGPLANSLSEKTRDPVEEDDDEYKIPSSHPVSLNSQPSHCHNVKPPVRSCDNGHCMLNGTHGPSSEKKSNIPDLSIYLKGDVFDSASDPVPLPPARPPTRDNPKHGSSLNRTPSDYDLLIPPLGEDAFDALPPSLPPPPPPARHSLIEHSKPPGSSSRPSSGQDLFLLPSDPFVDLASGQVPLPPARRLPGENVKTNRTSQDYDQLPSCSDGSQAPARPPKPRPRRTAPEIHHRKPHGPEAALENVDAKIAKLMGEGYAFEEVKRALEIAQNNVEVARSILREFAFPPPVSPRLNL

`Cn1cnnc1[C@@H](c1cccc(-n2cc3c(C(F)(F)F)cc(CN4CCN(C(=O)Cc5ccc(C6CCN(c7ccc8c(c7)CN([C@H]7CCC(=O)NC7=O)C8=O)CC6)cc5)CC4)cn3c2=O)c1)C1CCC1` (single isomer, unassigned) [Compound 202]: the DC50 – broadly, the concentration at which degradation of the target reaches its halfway point – under setting [1] is less than 30 nM. The Dmax (usually the greatest extent of degradation seen) under setting [2] was more than 70%.
For the molecule `Cn1cnnc1CC1(c2cccc(-n3cc4c(C(F)(F)F)cc(CN5CCC(CC(=O)N6CCC(CC7CCN(c8ccc9c(c8)CN([C@H]8CCC(=O)NC8=O)C9=O)CC7)CC6)CC5)cn4c3=O)c2)COC1` (single isomer, unassigned) [Compound 258], under setting [1], the DC50 was less than 30 nM. In addition, the maximal degradation (Dmax) (THP-1) was more than 70%.
`Cn1cnnc1[C@@H](c1cccc(-n2cc3c(C(F)(F)F)cc(CN4CCC(OCCN5CCC(CN6CCN(c7cc8c(cc7F)C(=O)N(C7CCC(=O)NC7=O)C8=O)CC6)CC5)CC4)cn3c2=O)c1)C1CCC1` (stereo partly drawn) [Compound 16] came in with a DC50 under setting [1] of 1000 to 10000 nM. Under setting [2], the Dmax was 30 to 50%.
In the case of `Cn1cnnc1CC1(c2cccc(-n3cc4c(C(F)(F)F)cc(CN5CCC(CC(=O)N6CCC(CC7CCN(c8ccc9c(c8)CN([C@@H]8CCC(=O)NC8=O)C9=O)CC7)CC6)CC5)cn4c3=O)c2)COC1` (single isomer, unassigned) [Compound 257], under setting [1], the DC50 lay in the range of 30 to 300 nM. In addition, under “THP-1”, the greatest degradation seen (Dmax) fell in the range of 50 to 70%.
Take `Cn1cnnc1CC1(c2cccc(-n3cc4c(C(F)(F)F)cc(CN5CCC(CC(=O)N6CCC(CN7CCN(c8ccc9c(c8)CN([C@@H]8CCC(=O)NC8=O)C9=O)CC7)CC6)CC5)cn4c3=O)c2)COC1` [Compound 255]: under setting [1], the 50% degradation concentration (DC50) lay in the range of 30 to 300 nM. Besides, under setting [2], the Dmax was more than 70%.
Taken in the same sequence, the figures for `Cn1cnnc1[C@@H](c1cccc(N2Cc3c(cc(CN4CCC(OCCN5CCC(CN6CCN(c7ccc8c(c7)CN([C@@H]7CCC(=O)NC7=O)C8=O)CC6)CC5)CC4)cc3C(F)(F)F)C2=O)c1)C1CCC1` [Compound 65] were 300 to 1000 nM and 50 to 70%.
Taken in the same sequence, the figures for `Cn1cnnc1CC1(c2cccc(N3Cc4c(cc(CN5CCC(OCCN6CCC(CN7CCN(c8ccc9c(c8)CN([C@H]8CCC(=O)NC8=O)C9=O)CC7)CC6)CC5)cc4C(F)(F)F)C3=O)c2)COC1` [Compound 76] were 30 to 300 nM and 50 to 70%.
Taken in the same sequence, the figures for `CN(CCN(C)C(=O)c1ccc(C2CCN(c3ccc4c(c3)CN([C@@H]3CCC(=O)NC3=O)C4=O)CC2)cc1)Cc1cc(C(F)(F)F)c2cn(-c3cccc([C@H](c4nncn4C)C4CCC4)c3)c(=O)n2c1` (single isomer, unassigned) [Compound 211] were more than 10000 nM and less than 30%.
`Cn1cnnc1[C@@H](c1cccc(-n2cc3c(C(F)(F)F)cc(CN4CCC(C(=O)N5CCC(CN6CCN(c7ccc8c(c7)CN(C7CCC(=O)NC7=O)C8=O)CC6)CC5)CC4)cn3c2=O)c1)C1CCC1` (stereo partly drawn) [Compound 44] showed a DC50 under setting [1] of more than 10000 nM. For the same molecule, the Dmax under setting [2] was 30 to 50%.
As for `Cn1cnnc1CC1(c2cccc(-n3cc4c(C(F)(F)F)cc(CN5CCN(CCN6CCC(CN7CCN(c8ccc9c(c8)CN([C@@H]8CCC(=O)NC8=O)C9=O)CC7)CC6)CC5)cn4c3=O)c2)COC1` (single isomer, unassigned) [Compound 61], the DC50 under setting [1] lay in the range of 30 to 300 nM. The same molecule gave a Dmax (THP-1) of 50 to 70%.
Under setting [1], `Cn1cnnc1[C@@H](c1cccc(-n2cc3c(C(F)(F)F)cc(CN4CCC[C@@H](OC5CCN(C(=O)c6ccc(N7CCN(c8ccc9c(c8)CN([C@@H]8CCC(=O)NC8=O)C9=O)CC7)cc6)CC5)C4)cn3c2=O)c1)C1CCC1` (single isomer, unassigned) [Compound 171] yielded a DC50 of less than 30 nM. Besides, the Dmax under setting [2] was 50 to 70%.
Taken in the same sequence, the figures for `Cn1cnnc1CC1(c2cccc(-n3cc4c(C(F)(F)F)cc(CN5CCC(OCCOCc6ccc(CN7CCN(c8cccc9c8C(=O)N(C8CCC(=O)NC8=O)C9=O)CC7)cc6)CC5)cn4c3=O)c2)COC1` (stereo not drawn) [Compound 19] were more than 10000 nM and less than 30%.
